The values below are quoted from earlier work in patent US11504321B2, “Process of coloring keratinous material comprising the use of an organosilicon compound, an effect pigment, a further coloring compound and a film-forming polymer II” (Henkel AG & Co. KGaA, priority 2019, dated 2022).

For this data set the following is noted: for solubility in water: 25° C.

Turning to `O=S(=O)([O-])c1ccc(N=Nc2c(O)ccc3ccccc23)cc1.[Na+]` [Acid Orange 7, sodium salt of 4-[(2-hydroxy-1-naphthyl)azo]benzene sulphonate], the solubility in water entry is on record as “more than 7 g/L”. As for `CCN(Cc1cccc(S(=O)(=O)[O-])c1)c1ccc(C(=C2C=CC(=[N+](CC)Cc3cccc(S(=O)(=O)[O-])c3)C=C2)c2ccccc2S(=O)(=O)[O-])cc1.[Na+].[Na+]` [Acid Blue 9], the solubility in water entry is given as “more than 20 % by weight”.

For the molecule `O=C([O-])c1c(Cl)c(Cl)c(Cl)c(Cl)c1-c1c2c(Br)cc(=O)c(Br)c-2oc2c(Br)c(O)cc(Br)c12.O=C([O-])c1c(Cl)c(Cl)c(Cl)c(Cl)c1-c1c2c(Br)cc(=O)c(Br)c-2oc2c(Br)c(O)cc(Br)c12.[Na+].[Na+]` [Acid Red 92, disodium salt of 3,4,5,6-tetrachloro-2-(1,4,5,8-tetrabromo-6-hydroxy-3-oxoxanthen-9-yl)benzoic acid], the solubility in water entry is “greater than 10 g/L”. `O=C([O-])C1=NN(c2ccc(S(=O)(=O)[O-])cc2)C(=O)C1N=Nc1ccc(S(=O)(=O)[O-])cc1.[Na+].[Na+].[Na+]` (centres unmarked) [Acid Yellow 23, trisodium salt of 4,5-dihydro-5-oxo-1-(4-sulfophenyl)-4-((4-sulfophenyl)azo)-1H-pyrazole-3-carboxylic acid]: where the note is “at 25° C.”, the “solubility in water (in words)” value was “highly soluble in water”. For the molecule `Nc1cc(S(=O)(=O)[O-])cc2cc(S(=O)(=O)[O-])c(N=Nc3ccccc3)c(O)c12.[Na+].[Na+]` [Acid Red 33, disodium salt of 5-amino-4-hydroxy-3-(phenylazo)-naphthalene-2,7-disulphonate], the solubility in water is given as 2.5 g/L.
